In patent US20230048132A1, “CYCLIN-DEPENDENT KINASE INHIBITORS” (SPV THERAPEUTICS INC., priority 2018, published 2023):

Columns and labels:
all cell lines tested = assay: 2D cell proliferation assay, geometric mean over the cell line panel; type: cell-based; conditions: Table 5 upper part; geometric mean over the 47-line panel; read-out: Geomean abs. IC50 value
Experimental: (§1) Viability of the cells was analyzed by using the CellTiter-Blue® Cell Viability Assay (Promega), and was performed according to manufacturer's instructions. Briefly, cells were harvested from exponential phase cultures (Chapter 6.6), counted and plated in 96-well flat-bottom microtiter plates at a cell density of 4,000-60,000 cells/well in a volume of 140 μl per well. After a 24 hours recovery period, 10 μL cell culture medium (six control wells/plate) or culture medium with test compound were added (Chapter 6.2). The compounds were applied at five concentrations in full-log increments up to 100 μM in duplicate. Cultures were incubated at 37° C. and 5% CO2 in a humidified atmosphere for another three days. After three days of treatment, 20 μl/well CellTiter-Blue® reagent was added. Following incubation with CellTiter-Blue® reagent for up to four hours, fluorescence (FU) was measured by using the Enspire Multimode Plate Reader (excitation λ=570 nm, emission λ=600 nm). For calculations, the mean values of duplicate/sextuplicate (untreated control) data were used.
(§2) IC values are reported as relative IC50 values and absolute IC50 and IC70 values. […] The absolute IC70 value gives the concentration of the test compound that achieves T/C=30%. The relative IC50 value is the concentration of test compound that gives a response halfway between the top and bottom plateau of the sigmoidal concentration-response curve (inflection point of the curve). Calculation was done by 4parameter non-linear curve fit (Oncotest Data Warehouse Software).
(§3) If an IC50 or IC70 value could not be determined within the examined dose range (because a compound was either too active or lacked activity), the lowest or highest concentration studied was used for calculation of the geometric mean value.
The overall potency of a compound was determined by the geometric mean IC50/IC70 values of all individual IC50/IC70 values. In the heatmap representation of IC50 and IC70 values, the distribution of the IC50 or IC70 values obtained for a test compound in the individual cell lines is given in relation to the geometric mean IC50 or IC70 value, obtained over all PDX models tested. The individual IC values range from 1/32-fold geometric mean IC (corresponding to very potent compound activity or high tumor sensitivity) to 32-fold geometric mean IC (corresponding to lack of compound activity or tumor resistance). The heatmap presentation, therefore, represents an antiproliferative “fingerprint” profile of a test compound.

CDK9-CYCLINT1 = biological target: T1, CDK9-CYCLINT1 (Homo sapiens, UniProt P50750); assay: CDK inhibition assay (microfluidic LabChip, IC50 format); type: biochemical; conditions: Table 4a; read-out: CDK9 CyclinT1 IC50
T1 construct: purchased Carna
T1 sequence (P50750 whole entry): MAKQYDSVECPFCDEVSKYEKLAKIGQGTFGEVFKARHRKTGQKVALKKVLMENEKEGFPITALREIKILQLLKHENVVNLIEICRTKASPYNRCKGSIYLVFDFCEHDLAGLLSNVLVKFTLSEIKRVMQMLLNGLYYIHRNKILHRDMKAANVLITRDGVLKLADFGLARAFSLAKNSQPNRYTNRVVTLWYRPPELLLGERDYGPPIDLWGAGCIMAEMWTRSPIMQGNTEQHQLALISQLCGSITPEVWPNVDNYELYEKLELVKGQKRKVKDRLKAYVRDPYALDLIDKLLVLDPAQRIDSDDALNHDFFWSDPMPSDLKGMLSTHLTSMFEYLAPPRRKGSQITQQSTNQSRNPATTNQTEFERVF
T1 sequence (O60563 whole entry partner): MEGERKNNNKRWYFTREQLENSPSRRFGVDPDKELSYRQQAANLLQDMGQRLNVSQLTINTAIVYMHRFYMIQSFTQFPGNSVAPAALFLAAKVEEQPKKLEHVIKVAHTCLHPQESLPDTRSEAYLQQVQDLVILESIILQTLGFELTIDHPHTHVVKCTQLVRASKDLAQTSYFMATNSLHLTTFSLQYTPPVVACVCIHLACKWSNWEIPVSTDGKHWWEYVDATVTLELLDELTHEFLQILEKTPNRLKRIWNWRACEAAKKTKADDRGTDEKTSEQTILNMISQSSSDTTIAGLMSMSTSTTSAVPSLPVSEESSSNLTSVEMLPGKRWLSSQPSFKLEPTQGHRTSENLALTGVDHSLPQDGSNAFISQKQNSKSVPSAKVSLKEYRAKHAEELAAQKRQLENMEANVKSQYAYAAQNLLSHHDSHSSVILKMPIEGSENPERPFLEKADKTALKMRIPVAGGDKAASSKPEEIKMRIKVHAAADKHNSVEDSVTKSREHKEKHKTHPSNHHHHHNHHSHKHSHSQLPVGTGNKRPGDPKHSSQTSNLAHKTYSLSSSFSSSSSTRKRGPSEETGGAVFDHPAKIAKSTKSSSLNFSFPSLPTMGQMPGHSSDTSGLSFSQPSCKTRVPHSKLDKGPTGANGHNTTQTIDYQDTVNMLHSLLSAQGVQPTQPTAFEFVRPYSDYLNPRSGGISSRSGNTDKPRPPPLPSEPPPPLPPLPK

CDK4-CYCLIND1 = CDK4-CYCLIND1 (Homo sapiens, UniProt P11802); assay: as above; conditions: CDK4 CyclinD1 IC50, Table 4a; a second value in parentheses for some compounds
Sequence of CDK4-CYCLIND1 (P11802 whole entry): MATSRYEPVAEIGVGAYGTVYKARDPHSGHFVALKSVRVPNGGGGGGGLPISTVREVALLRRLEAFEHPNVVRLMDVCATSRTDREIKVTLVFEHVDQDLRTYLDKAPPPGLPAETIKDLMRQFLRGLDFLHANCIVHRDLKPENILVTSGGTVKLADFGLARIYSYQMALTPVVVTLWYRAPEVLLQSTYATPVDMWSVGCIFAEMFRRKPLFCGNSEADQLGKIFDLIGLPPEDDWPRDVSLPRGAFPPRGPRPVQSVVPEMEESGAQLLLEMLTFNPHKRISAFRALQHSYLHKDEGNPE
Sequence of CDK4-CYCLIND1 (P24385 whole entry partner): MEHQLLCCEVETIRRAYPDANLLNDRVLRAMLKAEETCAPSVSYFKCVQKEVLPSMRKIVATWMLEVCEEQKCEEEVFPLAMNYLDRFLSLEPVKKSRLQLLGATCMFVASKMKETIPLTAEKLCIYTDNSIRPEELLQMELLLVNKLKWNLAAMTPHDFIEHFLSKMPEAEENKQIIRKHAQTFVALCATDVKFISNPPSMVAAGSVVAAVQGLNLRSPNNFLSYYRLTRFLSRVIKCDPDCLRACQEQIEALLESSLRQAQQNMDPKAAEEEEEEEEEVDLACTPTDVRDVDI

MEXF A-375 = assay: 2D cell proliferation assay (CellTiter-Blue); type: cell-based; conditions: Homo sapiens, 72 h, three days of treatment, read-out: abs. IC50
Experimental: as §1
(§4) An assay was considered fully evaluable if the following quality control criteria were fulfilled: • control/background ratio>3.0-Z′-factor calculated within the assay plate>0.5 [7]—coefficient of variation in the growth control wells <30%
(§5) Drug effects were expressed in terms of the percentage of the fluorescence signal, obtained by comparison of the mean signal in the treated wells with the mean signal of the untreated controls (expressed by the test-versus-control value, T/C-value [%]):
as §2, §3

MEXF A2058 = assay: 2D cell proliferation assay (CellTiter-Blue); type: cell-based; conditions: Homo sapiens, 72 h, three days of treatment, read-out: abs. IC50
Experimental: as §1, §4, §5, §2, §3

PRXF 22Rv1 = assay: 2D cell proliferation assay (CellTiter-Blue); type: cell-based; conditions: Homo sapiens, 72 h, three days of treatment, read-out: abs. IC50
Experimental: as §1, §4, §5, §2, §3

MAXFTN MDA-MB-453 = assay: 2D cell proliferation assay (CellTiter-Blue); type: cell-based; conditions: Homo sapiens, 72 h, three days of treatment, read-out: abs. IC50
Experimental: as §1, §4, §5, §2, §3

CXF HT-29 = assay: 2D cell proliferation assay (CellTiter-Blue); type: cell-based; conditions: Homo sapiens, 72 h, three days of treatment, read-out: abs. IC50
Experimental: as §1, §4, §5, §2, §3

GXA MKN45 = assay: 2D cell proliferation assay (CellTiter-Blue); type: cell-based; conditions: Homo sapiens, MKN-45, 72 h, three days of treatment, read-out: abs. IC50
Experimental: as §1, §4, §5, §2, §3

MAXFTN ZR-75-1 (ER+) = assay: 2D cell proliferation assay (CellTiter-Blue); type: cell-based; conditions: Homo sapiens, 72 h, three days of treatment, read-out: abs. IC50
Experimental: as §1, §4, §5, §2, §3

PAXF MIA-Pa-Ca-2 = assay: 2D cell proliferation assay (CellTiter-Blue); type: cell-based; conditions: Homo sapiens, MIA PaCa-2, 72 h, three days of treatment, read-out: abs. IC50
Experimental: as §1, §4, §5, §2, §3

LXFL NCl-H1299 = assay: 2D cell proliferation assay (CellTiter-Blue); type: cell-based; conditions: 72 h, three days of treatment, read-out: abs. IC50
Experimental: as §1, §4, §5, §2, §3

LYXFNH U-937 = assay: 2D cell proliferation assay (CellTiter-Blue); type: cell-based; conditions: Homo sapiens, 72 h, three days of treatment, read-out: abs. IC50
Experimental: as §1, §4, §5, §2, §3

MAXFLB T47D (ER+) = assay: 2D cell proliferation assay (CellTiter-Blue); type: cell-based; conditions: Homo sapiens, 72 h, three days of treatment, read-out: abs. IC50
Experimental: as §1, §4, §5, §2, §3

LEXFCM K-562 = assay: 2D cell proliferation assay (CellTiter-Blue); type: cell-based; conditions: Homo sapiens, K562, 72 h, three days of treatment, read-out: abs. IC50
Experimental: as §1, §4, §5, §2, §3

CXF HCT-15 = assay: 2D cell proliferation assay (CellTiter-Blue); type: cell-based; conditions: Homo sapiens, 72 h, three days of treatment, read-out: abs. IC50
Experimental: as §1, §4, §5, §2, §3

LIXFH Hep G2 = assay: 2D cell proliferation assay (CellTiter-Blue); type: cell-based; conditions: Homo sapiens, HepG2, 72 h, three days of treatment, read-out: abs. IC50
Experimental: as §1, §4, §5, §2, §3

MEXF MDA-MB-435 = assay: 2D cell proliferation assay (CellTiter-Blue); type: cell-based; conditions: Homo sapiens, 72 h, three days of treatment, read-out: abs. IC50
Experimental: as §1, §4, §5, §2, §3

MAXFTN MDA-MB-231 (ER−) = assay: 2D cell proliferation assay (CellTiter-Blue); type: cell-based; conditions: Homo sapiens, 72 h, three days of treatment, read-out: abs. IC50
Experimental: as §1, §4, §5, §2, §3

MAXFHER SK-BR-3 = assay: 2D cell proliferation assay (CellTiter-Blue); type: cell-based; conditions: Homo sapiens, 72 h, three days of treatment, read-out: abs. IC50
Experimental: as §1, §4, §5, §2, §3

MEXF M14 = assay: 2D cell proliferation assay (CellTiter-Blue); type: cell-based; conditions: 72 h, three days of treatment, read-out: abs. IC50
Experimental: as §1, §4, §5, §2, §3

CDK2-CYCLINA = biological target: T2, CDK2-CYCLINA (Homo sapiens, UniProt P24941); assay: CDK inhibition assay (microfluidic LabChip, IC50 format); type: biochemical; conditions: Table 4a; read-out: CDK2 CyclinA IC50
T2 construct: purchased Millipore

CDK7 CyclinH = CDK7 CyclinH (Homo sapiens, UniProt P50613); assay: as above; type: biochemical; conditions: Table 4a
Sequence of CDK7 CyclinH (P50613 whole entry): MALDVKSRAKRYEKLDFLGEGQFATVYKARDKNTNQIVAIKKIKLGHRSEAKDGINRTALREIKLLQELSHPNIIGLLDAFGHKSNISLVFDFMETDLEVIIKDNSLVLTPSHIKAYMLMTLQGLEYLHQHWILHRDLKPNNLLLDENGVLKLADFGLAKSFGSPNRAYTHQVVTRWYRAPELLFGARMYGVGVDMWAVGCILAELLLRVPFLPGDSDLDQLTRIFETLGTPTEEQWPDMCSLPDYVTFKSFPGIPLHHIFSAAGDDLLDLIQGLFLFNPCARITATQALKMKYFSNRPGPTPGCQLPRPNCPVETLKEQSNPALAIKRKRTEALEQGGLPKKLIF
Sequence of CDK7 CyclinH (P51946 whole entry partner): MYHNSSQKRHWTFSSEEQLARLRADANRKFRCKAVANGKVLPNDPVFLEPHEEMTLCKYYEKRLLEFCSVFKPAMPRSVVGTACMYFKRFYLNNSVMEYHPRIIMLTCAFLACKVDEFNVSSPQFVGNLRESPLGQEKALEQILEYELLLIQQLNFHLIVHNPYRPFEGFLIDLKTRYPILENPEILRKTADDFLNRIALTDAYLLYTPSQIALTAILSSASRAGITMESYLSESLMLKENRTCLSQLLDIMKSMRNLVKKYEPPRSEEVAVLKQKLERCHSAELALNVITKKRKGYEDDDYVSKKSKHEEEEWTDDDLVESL
Sequence of CDK7 CyclinH (P51948 whole entry partner): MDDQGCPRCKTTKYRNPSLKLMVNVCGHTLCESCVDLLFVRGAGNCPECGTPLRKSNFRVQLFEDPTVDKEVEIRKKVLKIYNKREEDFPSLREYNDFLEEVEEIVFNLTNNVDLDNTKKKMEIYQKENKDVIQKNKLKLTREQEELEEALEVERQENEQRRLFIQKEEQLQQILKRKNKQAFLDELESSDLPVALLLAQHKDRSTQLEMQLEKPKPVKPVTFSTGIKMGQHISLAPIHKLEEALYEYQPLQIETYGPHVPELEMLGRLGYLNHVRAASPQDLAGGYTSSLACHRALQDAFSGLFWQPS

CDK6-CYCLIND3 = biological target: T3, CDK6-CYCLIND3 (Homo sapiens, UniProt Q00534); assay: as above; type: biochemical; conditions: Table 4a; read-out: CDK6 CyclinD3 IC50
T3 construct: purchased Carna
T3 sequence (Q00534 whole entry): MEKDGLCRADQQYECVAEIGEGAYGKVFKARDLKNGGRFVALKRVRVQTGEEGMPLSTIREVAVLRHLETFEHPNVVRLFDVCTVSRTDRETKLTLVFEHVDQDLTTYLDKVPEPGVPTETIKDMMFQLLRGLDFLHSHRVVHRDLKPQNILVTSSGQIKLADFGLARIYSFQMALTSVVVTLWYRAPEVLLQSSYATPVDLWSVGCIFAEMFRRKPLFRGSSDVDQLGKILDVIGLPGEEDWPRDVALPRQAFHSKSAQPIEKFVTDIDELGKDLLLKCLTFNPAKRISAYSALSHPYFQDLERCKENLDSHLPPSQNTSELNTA
T3 sequence (P30281 whole entry partner): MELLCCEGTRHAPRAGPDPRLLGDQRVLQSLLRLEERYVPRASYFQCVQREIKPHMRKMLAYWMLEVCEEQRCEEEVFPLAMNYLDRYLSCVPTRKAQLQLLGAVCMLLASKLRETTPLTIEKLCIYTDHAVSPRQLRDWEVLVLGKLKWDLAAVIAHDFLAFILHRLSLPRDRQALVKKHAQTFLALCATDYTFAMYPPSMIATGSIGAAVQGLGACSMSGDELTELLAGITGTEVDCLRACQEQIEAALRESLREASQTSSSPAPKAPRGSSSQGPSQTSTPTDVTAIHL

| Structure (SMILES) | IC50 (all cell lines tested) [µM] | IC50 (CDK9-CYCLINT1) [µM] | IC50 (CDK4-CYCLIND1) [µM] | IC50 (MEXF A-375) [µM] | IC50 (MEXF A2058) [µM] | IC50 (PRXF 22Rv1) [µM] | IC50 (MAXFTN MDA-MB-453) [µM] | IC50 (CXF HT-29) [µM] | IC50 (GXA MKN45) [µM] | IC50 (MAXFTN ZR-75-1 (ER+)) [µM] | IC50 (PAXF MIA-Pa-Ca-2) [µM] | IC50 (LXFL NCl-H1299) [µM] | IC50 (LYXFNH U-937) [µM] | IC50 (MAXFLB T47D (ER+)) [µM] | IC50 (LEXFCM K-562) [µM] | IC50 (CXF HCT-15) [µM] | IC50 (LIXFH Hep G2) [µM] | IC50 (MEXF MDA-MB-435) [µM] | IC50 (MAXFTN MDA-MB-231 (ER−)) [µM] | IC50 (MAXFHER SK-BR-3) [µM] | also measured |
| --- | --- | --- | --- | --- | --- | --- | --- | --- | --- | --- | --- | --- | --- | --- | --- | --- | --- | --- | --- | --- | --- |
| O=C1NCC[C@@]12Cc1cnc(Nc3ccc(N4CCNCC4)cc3F)nc1N(C1CCCC1)C2=O [Example D146, (S)-8-cyclopentyl-2-((2-fluoro-4-(piperazin-1-yl)phenyl)amino)-5,8-dihydro-7H-spiro[pyrido[2,3-d]pyrimidine-6,3′-pyrrolidine]-2′,7-dione] | 1.24 | 0.0248 | 0.00419 | 0.263 | 1.53 | 0.138 | 0.327 | 8.98 | 3.12 | 9.03 | 6.3 | 8.9 | ≤ 0.01 | 1.63 | 4.94 | 2.05 | 0.341 | 0.875 | 0.703 | 1.02 | IC50 (MEXF M14): 1.58 µM; IC50 (CDK2-CYCLINA): 0.273 µM; IC50 (CDK7 CyclinH): 1.12 µM; IC50 (CDK6-CYCLIND3): 0.00812 µM |
| CC(C)N1CCN(c2ccc(Nc3ncc4c(n3)N(C3CCCC3)C(=O)[C@]3(CCNC3=O)C4)nc2)CC1 [Example D154, (S)-8-cyclopentyl-2-((5-(4-isopropylpiperazin-1-yl)pyridin-2-yl)amino)-5,8-dihydro-7H-spiro[pyrido[2,3-d]pyrimidine-6,3′-pyrrolidine]-2′,7-dione] | 17 | 0.163 | 0.00205 | 0.254 | 14.5 | 1.42 | 7.68 | 29.9 | 47.8 | ≥ 100 | 73.9 | 37.3 | ≤ 0.01 | 97.4 | 84.4 | 22.1 | 8.14 | 16 | 4.86 | 13.8 | IC50 (MEXF M14): 21.4 µM; IC50 (CDK2-CYCLINA): 2.14 µM; IC50 (CDK7 CyclinH): 13.5 µM; IC50 (CDK6-CYCLIND3): 0.00234 µM |
| CN(C)[C@H]1CCN(c2ccc(Nc3ncc4c(n3)N(C3CCCC3)C(=O)[C@]3(CCNC3=O)C4)nc2)C1 [Example D178, (S)-8-cyclopentyl-2-((5-((S)-3-(dimethylamino)pyrrolidin-1-yl)pyridin-2-yl)amino)-5,8-dihydro-7H-spiro[pyrido[2,3-d]pyrimidine-6,3′-pyrrolidine]-2′,7-dione] | 16.5 | 0.00425 | 0.00103 | 0.769 | 60.4 | 0.447 | 2 | 31.8 | 47.3 | 88.2 | 65.9 | 30.1 | ≤ 0.01 | 46.2 | 75.7 | 29.5 | 5.31 | 18.3 | 2.45 | 31.9 | IC50 (MEXF M14): 24.6 µM; IC50 (CDK2-CYCLINA): 0.127 µM; IC50 (CDK7 CyclinH): 1.13 µM; IC50 (CDK6-CYCLIND3): 0.00188 µM |
| CN(C)CCOc1ccc(Nc2ncc3c(n2)N(C2CCCC2)C(=O)[C@]2(CCNC2=O)C3)cc1 [Example D179, (S)-8-cyclopentyl-2-((4-(2-(dimethylamino)ethoxy)phenyl)amino)-5,8-dihydro-7H-spiro[pyrido[2,3-d]pyrimidine-6,3′-pyrrolidine]-2′,7-dione] | 0.205 | 0.00185 | 0.00127 | 0.061 | 0.174 | 0.021 | 0.057 | 0.562 | 0.112 | 0.409 | 0.163 | 0.353 | ≤ 0.01 | 0.829 | 0.355 | 1.41 | 0.037 | 0.102 | 0.053 | 0.328 | IC50 (MEXF M14): 0.268 µM; IC50 (CDK2-CYCLINA): 0.0675 µM; IC50 (CDK7 CyclinH): 0.321 µM; IC50 (CDK6-CYCLIND3): 0.00215 µM |
